Assay results reported in US6689778B2, “Inhibitors of Src and Lck protein kinases” (Vertex Pharmaceuticals Incorporated, priority 2001, dated 2004).

Tests used:
human Src kinase = target: T1, human Src kinase (Homo sapiens, UniProt P12931); experiment: Src inhibition assay (radioactivity-based assay A or spectrophotometric assay B); assay type: biochemical; settings: recombinant human Src, poly Glu-Tyr substrate; assay A or B not specified
T1 construct: full length recombinant human Src kinase (from Upstate Biotechnology, cat. no. 14-117); purchased Upstate Biotechnology 14-117; host or cells: baculovirus-infected (insect) cells
Method: The compounds were evaluated as inhibitors of human Src kinase using either a radioactivity-based assay or spectrophotometric assay.
(§1) The compounds were assayed as inhibitors of full length recombinant human Src kinase (from Upstate Biotechnology, cat. no. 14-117) expressed and purified from baculo viral cells. Src kinase activity was monitored by following the incorporation of ^33P from ATP into the tyrosine of a random poly Glu-Tyr polymer substrate of composition, Glu:Tyr=4:1 (Sigma, cat. no. P-0275). The following were the final concentrations of the assay components: 0.05 M HEPES, pH 7.6, 10 mM MgCl2, 2 mM DTT, 0.25 mg/ml BSA, 10 μM ATP (1-2 μCi ^33P-ATP per reaction), 5 mg/ml poly Glu-Tyr, and 1-2 units of recombinant human Src kinase. In a typical assay, all the reaction components with the exception of ATP were pre-mixed and aliquoted into assay plate wells. Inhibitors dissolved in DMSO were added to the wells to give a final DMSO concentration of 2.5%. The assay plate was incubated at 30° C. for 10 minutes before initiating the reaction with ^33P-ATP. After 20 minutes of reaction, the reactions were quenched with 150 μl of 10% trichloroacetic acid (TCA) containing 20 mM Na3PO4. The quenched samples were then transferred to a 96-well filter plate (Whatman, UNI-Filter GF/F Glass Fiber Filter, cat no. 7700-3310) installed on a filter plate vacuum manifold. Filter plates were washed four times with 10% TCA containing 20 mM Na3PO4 and then 4 times with methanol. 200 μl of scintillation fluid was then added to each well. The plates were sealed and the amount of radioactivity associated with the filters was quantified on a TopCount scintillation counter. The radioactivity incorporated was plotted as a function of the inhibitor concentration. The data was fitted to a competitive inhibition kinetics model to get the Ki for the compound.
(§2) The ADP produced from ATP by the human recombinant Src kinase-catalyzed phosphorylation of poly Glu-Tyr substrate was quanitified using a coupled enzyme assay (Fox et al (1998) Protein Sci 7, 2249). In this assay one molecule of NADH is oxidised to NAD for every molecule of ADP produced in the kinase reaction. The disappearance of NADH can be conveniently followed at 340 nm.
(§3) The following were the final concentrations of the assay components: 0.025 M HEPES, pH 7.6, 10 mM MgCl2, 2 mM DTT, 0.25 mg/ml poly Glu-Tyr, and 25 nM of recombinant human Src kinase. Final concentrations of the components of the coupled enzyme system were 2.5 mM phosphoenolpyruvate, 200 μM NADH, 30 μg/ml pyruvate kinase and 10 μg/ml lactate dehydrogenase.
(§4) In a typical assay, all the reaction components with the exception of ATP were pre-mixed and aliquoted into assay plate wells. Inhibitors dissolved in DMSO were added to the wells to give a final DMSO concentration of 2.5%. The assay plate was incubated at 30° C. for 10 minutes before initiating the reaction with 100 μM ATP. The absorbance change at 340 nm with time, the rate of the reaction, was monitored on a molecular devices plate reader. The data of rate as a function of the inhibitor concentration was fitted to compettive inhibition kinetics model to get the Ki for the compound.

human Lck kinase = human Lck kinase (UniProt P06239); experiment: Lck inhibition assay (radioactivity-based assay A or spectrophotometric assay B); assay type: biochemical; settings: poly Glu-Tyr substrate; assay A or B not specified; read-out: Lck Activity (Ki class)
Method: The compounds were evaluated as inhibitors of human Lck kinase using either a radioactivity-based assay or spectrophotometric assay.
as §1, with “length bovine thymus Lck” for “length recombinant human Src”, “no. 14-106)” for “no. 14-117)”, “cells. Lck” for “cells. Src”, “components: 0.025” for “components: 0.05”, “20 min” for “20 minutes”
as §2, with “Lck” for “Src”
as §3, with “DTT, 5” for “DTT, 0.25”, “and 50” for “and 25”, “human Lck” for “human Src”
as §4, with “150” for “100”, “competitive” for “compettive”

T1 sequence (P12931 whole entry): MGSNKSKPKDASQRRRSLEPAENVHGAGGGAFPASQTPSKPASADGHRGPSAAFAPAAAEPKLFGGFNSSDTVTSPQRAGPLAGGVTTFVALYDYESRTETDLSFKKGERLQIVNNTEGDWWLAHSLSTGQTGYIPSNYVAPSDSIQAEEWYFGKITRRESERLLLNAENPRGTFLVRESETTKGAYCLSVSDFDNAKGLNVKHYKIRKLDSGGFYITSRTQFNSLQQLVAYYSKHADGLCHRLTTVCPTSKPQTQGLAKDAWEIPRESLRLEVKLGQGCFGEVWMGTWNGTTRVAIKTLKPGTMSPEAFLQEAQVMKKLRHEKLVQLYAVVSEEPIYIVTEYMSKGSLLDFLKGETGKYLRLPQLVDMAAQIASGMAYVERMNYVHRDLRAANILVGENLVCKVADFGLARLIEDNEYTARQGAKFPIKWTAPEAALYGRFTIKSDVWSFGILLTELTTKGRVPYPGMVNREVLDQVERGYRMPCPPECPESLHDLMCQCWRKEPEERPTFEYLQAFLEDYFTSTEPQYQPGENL

Structure (SMILES) | Ki (human Src kinase) | Ki (human Lck kinase)
Cc1onc(C2CCCCC2)c1-c1ccnc(Nc2cccc(OCCOC3CCCCO3)c2)n1 (centres unmarked) [IIIa-1] | < 0.1 µM | < 0.1 µM
Cc1onc(C2CCCCC2)c1-c1ccnc(Nc2cccc(OCCN3CCOCC3)c2)n1 [IIIa-2] | < 0.1 µM | < 0.1 µM
Cc1onc(C2CCCCC2)c1-c1ccnc(Nc2cccc(OCCN3CCCC3)c2)n1 [IIIa-3] | < 0.1 µM | < 0.1 µM
Cc1onc(C2CCCCC2)c1-c1ccnc(Nc2cccc(OCCN3CCCCC3)c2)n1 [IIIa-4] | < 0.1 µM | < 0.1 µM
Cc1onc(C2CCCCC2)c1-c1ccnc(Nc2cccc(OCCN3CCC(O)CC3)c2)n1 [IIIa-5] | < 0.1 µM | < 0.1 µM
Cc1onc(C2CCCCC2)c1-c1ccnc(Nc2cccc(OCCN3CCC(CO)CC3)c2)n1 [IIIa-6] | < 0.1 µM | < 0.1 µM
Cc1onc(C2CCCCC2)c1-c1ccnc(Nc2cccc(OCCN3CCC[C@H]3CO)c2)n1 [IIIa-7] | < 0.1 µM | < 0.1 µM
Cc1onc(C2CCCCC2)c1-c1ccnc(Nc2cccc(OCCN3CCN(CCO)CC3)c2)n1 [IIIa-8] | < 0.1 µM | < 0.1 µM
Cc1onc(C2CCCCC2)c1-c1ccnc(Nc2cccc(OCCCN3CCC(O)CC3)c2)n1 [IIIa-9] |  | < 0.1 µM
Cc1onc(C2CCCCC2)c1-c1ccnc(Nc2cccc(OCCCN3CCC(CO)CC3)c2)n1 [IIIa-10] |  | < 0.1 µM
Cc1onc(C2CCCCC2)c1-c1ccnc(Nc2cccc(OCCCN3CCC[C@H]3CO)c2)n1 [IIIa-11] |  | < 0.1 µM
Cc1onc(C2CCCCC2)c1-c1ccnc(Nc2cccc(OCCCN3CCN(CCO)CC3)c2)n1 [IIIa-12] |  | < 0.1 µM
Cc1onc(C2CCCCC2)c1-c1ccnc(Nc2cccc(OCCCN3CCCC(O)C3)c2)n1 (centres unmarked) [IIIa-13] |  | < 0.1 µM
Cc1onc(C2CCCCC2)c1-c1ccnc(Nc2cccc(OCCCN3CCOCC3)c2)n1 [IIIa-15] |  | < 0.1 µM
Cc1onc(C2CCCCC2)c1-c1ccnc(Nc2cccc(OCCCN3CCCC3)c2)n1 [IIIa-16] |  | < 0.1 µM
Cc1onc(C2CCCCC2)c1-c1ccnc(Nc2cccc(OCCCN3CCCCC3)c2)n1 [IIIa-17] |  | < 0.1 µM
Cc1onc(C2CCCCC2)c1-c1ccnc(Nc2cccc(OCCCN3CCNCC3)c2)n1 [IIIa-18] |  | < 0.1 µM

Structure (SMILES) | Ki (human Src kinase) | Ki (human Lck kinase)
Cc1onc(C2CCCCC2)c1-c1ccnc(Nc2cccc(OCCCCN3CCC(O)CC3)c2)n1 [IIIa-19] |  | < 0.1 µM
Cc1onc(C2CCCCC2)c1-c1ccnc(Nc2cccc(OCCCCN3CCN(CCO)CC3)c2)n1 [IIIa-22] |  | < 0.1 µM
CCN1CCN(CCCCOc2cccc(Nc3nccc(-c4c(C5CCCCC5)noc4C)n3)c2)CC1 [IIIa-23] |  | < 0.1 µM
Cc1onc(C2CCCCC2)c1-c1ccnc(Nc2cccc(OCCCCN3CCOCC3)c2)n1 [IIIa-24] |  | < 0.1 µM
Cc1onc(C2CCCCC2)c1-c1ccnc(Nc2cccc(OCCCCN3CCCC3)c2)n1 [IIIa-25] |  | < 0.1 µM
Cc1onc(C2CCCCC2)c1-c1ccnc(Nc2cccc(OCCCCN3CCCCC3)c2)n1 [IIIa-26] |  | < 0.1 µM
Cc1onc(C2CCCCC2)c1-c1ccnc(Nc2cccc(OC3CCCN(C(=O)OC(C)(C)C)C3)c2)n1 (centres unmarked) [IIIa-28] |  | > 1 µM
Cc1onc(C2CCCCC2)c1-c1ccnc(Nc2cccc(OC3CCCNC3)c2)n1 (centres unmarked) [IIIa-29] |  | < 0.1 µM
Cc1onc(C2CCCCC2)c1-c1ccnc(Nc2cccc(OCC3CCCN(C(=O)OC(C)(C)C)C3)c2)n1 (centres unmarked) [IIIa-30] |  | > 1 µM
Cc1onc(C2CCCCC2)c1-c1ccnc(Nc2cccc(OCC3CCCNC3)c2)n1 (centres unmarked) [IIIa-31] |  | < 0.1 µM
COc1cc(Nc2ncc(C(=O)O)c(-c3c(C4CCCCC4)noc3C)n2)cc(OC)c1 [IIIb-24] |  | > 1 µM
COc1cc(Nc2ncc(CO)c(-c3c(C4CCCCC4)noc3C)n2)cc(OC)c1 [IIIb-25] |  | > 1 µM
COc1cc(Nc2ncc(C(N)=O)c(-c3c(C4CCCCC4)noc3C)n2)cc(OC)c1 [IIIb-26] |  | > 1 µM
COc1cc(Nc2ncc(C#N)c(-c3c(C4CCCCC4)noc3C)n2)cc(OC)c1 [IIIb-27] |  | 0.1 to 1 µM
CCc1onc(C2CCCCC2)c1-c1nc(Nc2cccc(O)c2)ncc1C [IIIb-28] | < 0.1 µM | < 0.1 µM
CCCOCc1cnc(Nc2cc(OC)cc(OC)c2)nc1-c1c(C2CCCCC2)noc1C [IIIb-29] |  | < 0.1 µM
Cc1onc(C2CCCCC2)c1-c1ccnc(Nc2cccc(NC(=O)CCN3CCCCC3)c2)n1 [Va-1] | < 0.1 µM | < 0.1 µM
